According to the PolyMetriX glass transition set:
± gives the standard deviation of the reports.

Structure (SMILES) | glass transition temperature [°C]
*Oc1ccc(NCC(=O)c2ccc(Sc3ccc(C(=O)CNc4ccc(*)cc4)cc3)cc2)cc1 (repeat unit) | 208.00
*CC(*)OC(=O)c1ccc(C)cc1 (repeat unit) | 73.50
*Oc1c(C)cc(-c2cc(C)c(Oc3ccc(C(=O)c4ccc(*)cc4)cc3)c(CBr)c2)cc1CBr (repeat unit) | 158.17
*CCN(*)C(=O)c1ccc(F)cc1 (repeat unit) | 104.00
*CCOCCOc1ccc(N/C=N/c2ccc(O*)cc2)cc1 (repeat unit) | 62.00
*CCN(CCOC(=O)Nc1cccc(NC(=O)O*)c1C)c1ccc(/N=N/c2ccc([N+](=O)[O-])cc2)cc1 (repeat unit) | 147.00
*c1ccc(Cc2ccc(N3C(=O)c4ccc(-c5ccc(-c6ccc(-c7ccc(-c8ccc(-c9ccc%10c(c9)C(=O)N(*)C%10=O)cc8)cc7)cc6)cc5)cc4C3=O)cc2)cc1 (repeat unit) | 244.00
*c1ccc(N2C(=O)c3ccc(P(=O)(c4ccccc4)c4ccc5c(c4)C(=O)N(*)C5=O)cc3C2=O)cc1 (repeat unit) | 366.00
*CCCCCCCCOC(=O)Nc1ccc(C)c(NC(=O)O*)c1 (repeat unit) | 64.00
*c1ccc(N(c2ccc(C#N)cc2)c2ccc(N3C(=O)c4ccc(Oc5ccc(C6(c7ccc(Oc8ccc9c(c8)C(=O)N(*)C9=O)cc7)c7ccccc7-c7ccccc76)cc5)cc4C3=O)cc2)cc1 (repeat unit) | 279.00
*CC(*)F (repeat unit) [Poly(vinyl fluoride)] | 33.92 ± 10
*C(=O)c1ccc2c(c1)C(=O)N(c1ccc(Oc3cccc(N4C(=O)c5ccc(*)cc5C4=O)c3)cc1)C2=O (repeat unit) | 280.50
*c1ccc(Oc2ccc(C(=O)c3ccc(Oc4ccc(-c5nc(-c6ccccc6)[nH]c5*)cc4)cc3)cc2)cc1 (repeat unit) | 259.00
*CC(*)(C)C(=O)OCCCCCCCCCCOc1ccc(OC(=O)c2ccc(OCCCCCCCC)cc2)cc1 (repeat unit) | 12.00
*CCCCCC(=O)Nc1ccc(Oc2cccc(NC(=O)CCCCCN3C(=O)c4ccc(C(=O)c5ccc6c(c5)C(=O)N(*)C6=O)cc4C3=O)c2)cc1 (repeat unit) | 170.00
*CC(*)C(=O)Oc1cccc(C)c1 (repeat unit) | 24.50
*c1ccc(C(c2ccc(-n3c(=O)c4cc5c(=O)n(*)c(=O)c5cc4c3=O)cc2)(C(F)(F)F)C(F)(F)F)cc1 (repeat unit) | 362.50 ± 25
*CCCCOC(=O)c1ccc(N/C=N/c2ccc(C(=O)O*)cc2)cc1 (repeat unit) | 91.00
*CC(OO*)c1ccc(C)cc1 (repeat unit) | 4.60
*c1ccc2c(c1)C(=O)N(c1ccc(Oc3ccc(N4C(=O)c5ccc(C(C)(C)CCCCCCCCC(*)(C)C)cc5C4=O)cc3)cc1)C2=O (repeat unit) | 123.7
*CCN(*)C(=O)c1c(F)cc(F)cc1F (repeat unit) | 135.00
*c1cccc(-c2nc3ccc(Oc4ccc5nc(*)c(-c6ccccc6)nc5c4)cc3nc2-c2ccccc2)c1 (repeat unit) | 270.00

Structure (SMILES) | glass transition temperature [°C]
*Oc1ccc(NC(=O)c2cccc(C(=O)Nc3ccc(OC4COC5C(*)COC45)cc3)c2)cc1 (repeat unit) | 218.00
*CC(=O)Nc1ccc(Oc2ccc(NC(=O)c3ccc4c(c3)C(=O)N(*)C4=O)cc2)cc1 (repeat unit) | 262.00
*OC(CCCCC)CC(*)=O (repeat unit) | -33.00
*O[Si](*)(C)CCCCCCCCCCC(=O)Oc1ccc(-c2ccc(OC(=O)CCCCC(=O)OC3CC(C)CCC3C(C)C)cc2)cc1 (repeat unit) | 16.50
*c1cccc(N2C(=O)c3ccc(Oc4c(C)cc(Cc5cc(C)c(Oc6ccc7c(c6)C(=O)N(*)C7=O)c(C)c5)cc4C)cc3C2=O)c1 (repeat unit) | 245.00
*CCC1C(=O)N(CCCCCCCCCCCCCC)C(=O)C1* (repeat unit) | 62.40
*CCN(CCOC(=O)c1cc(OCc2cc(OCc3ccccc3)cc(OCc3ccccc3)c2)cc(C(=O)O*)c1)c1ccc(/C=C/c2ccc(/C=C/C3=C(C#N)C(=C(C#N)C#N)OC3(c3ccccc3)C(F)(F)F)s2)cc1 (repeat unit) | 130.00
*CC(*)(F)C(=O)OCCC(F)(F)C(F)(F)C(F)(F)C(F)(F)C(F)(F)C(F)(F)C(F)(F)C(F)(F)F (repeat unit) | 87.50
*CC(*)(C)C(=O)Oc1ccc(C(=O)c2ccccc2)c(O)c1 (repeat unit) | 270.00
*Oc1ccc(C(C)(C)c2cccc(C(C)(C)c3ccc(Oc4ccc(C(=O)Nc5ccc(Cc6ccc(NC(=O)c7ccc(*)cc7)cc6)cc5)cc4)cc3)c2)cc1 (repeat unit) | 149.00
*O[Si](C)(C)c1cccc(C(F)(F)C(F)(F)C(F)(F)c2cccc([Si](*)(C)C)c2)c1 (repeat unit) | -8.00
*c1ccc2cc(OC(=O)c3cccc(C(=O)Oc4ccc5cc(-c6nc7ccccc7nc6*)ccc5c4)c3)ccc2c1 (repeat unit) | 151.00
*Nc1ccc(Oc2ccc(Nc3ccc4c(c3)c3cc(*)ccc3n4CC(CC)CCCC)cc2)cc1 (repeat unit) | 220.00
*Oc1ccc(Cc2ccc(OC(*)=S)cc2)cc1 (repeat unit) | 95.00
*CC(*)(C)C(=O)OCCN(C)c1ccc(N(C)C)cc1 (repeat unit) | 43.00
*c1cc(/C=N/C(=S)Nc2ccc(-n3c(=O)c4cc5c(=O)n(*)c(=O)c5cc4c3=O)cc2)ccc1Cl (repeat unit) | 276.00
*C1C=CC(*)CC1 (repeat unit) | 125.50
*CC(=O)C(*)c1ccccc1 (repeat unit) | 110.00
*c1ccc(-c2sc(-c3cc(CCCCCCCCCCCC)c(*)s3)cc2CCCCCCCCCCCC)cc1 (repeat unit) | 59.60
*O[SiH](*)C (repeat unit) | -3.39
*CC(CC)(CC)COC(=O)c1ccc(-c2ccc(-c3ccc(C(=O)O*)cc3)cc2)cc1 (repeat unit) | -20.00
*Nc1cccc(NC(=O)c2cc(C(*)=O)cc(S(=O)(=O)c3ccccc3)c2)c1 (repeat unit) | 277.00

Structure (SMILES) | glass transition temperature [°C]
*Oc1ccc(C2(c3ccc(OC(=O)C45CC6CC(CC(C(*)=O)(C6)C4)C5)cc3)c3ccccc3-c3ccccc32)cc1 (repeat unit) | 335.00
*CCCC(O)CN(CCCC)c1ccc(C#Cc2ccc(S(*)(=O)=O)cc2)cc1 (repeat unit) | 48.00
*Nc1ccc(C(C)(C)c2ccc(NC(=O)c3cc(C(*)=O)cc(N4C(=O)C=CC4=O)c3)cc2)cc1 (repeat unit) | 303.00
*C(=S)Nc1ccc(Oc2ccc(NC(=S)N3C(=O)c4ccc(C(=O)c5ccc6c(c5)C(=O)N(*)C6=O)cc4C3=O)cc2)cc1 (repeat unit) | 262.00
*C([2H])([2H])C(*)(C(=O)OC([2H])([2H])[2H])C([2H])([2H])[2H] (repeat unit) | 115.00
*c1ccc(C(=O)Nc2ccc(N3C(=O)c4ccc(-c5ccc6c(c5)C(=O)N(*)C6=O)cc4C3=O)cc2)cc1 (repeat unit) | 335.00
*c1ccc(C2(c3ccc(-c4nnc(*)o4)cc3)OC(=O)c3ccccc32)cc1 (repeat unit) | 380.00
*CCCCCCCCc1nc2cc(NC(=O)CCCCCCCCC(=O)Nc3ccc4oc(*)nc4c3)ccc2o1 (repeat unit) | 93.00
*C(=O)c1ccc2c(c1)C(=O)N(c1ccc(-c3ccc(NC(=O)c4cccc(C(=O)Nc5ccc(-c6ccc(N7C(=O)c8ccc(*)cc8C7=O)cc6)cc5)c4)cc3)cc1)C2=O (repeat unit) | 238.00
*CC(*)(C)C(=O)OCCCCOc1ccc(/N=N/c2ccc(C#N)cc2)cc1 (repeat unit) | 80.00
*Oc1ccc(Oc2ccc(S(=O)(=O)c3ccc(*)cc3)cc2)cc1 (repeat unit) | 210.00
*Oc1ccc(CC(NC(=O)Cc2ccc(OC(=O)COCCOCC(*)=O)cc2)C(=O)OCCCCCC)cc1 (repeat unit) | 31.00
*C(=O)Nc1cccc(P(=O)(c2ccccc2)c2cccc(NC(=O)c3ccc4c(c3)C(=O)N(c3cccc(P(=O)(c5ccccc5)c5cccc(N6C(=O)c7ccc(*)cc7C6=O)c5)c3)C4=O)c2)c1 (repeat unit) | 206.00
*Oc1ccc(NC(=O)c2ccc(*)cc2)cc1 (repeat unit) | 225.00
*=NP(=NP(=NC(=*)Oc1ccc(C(C)(C)c2ccccc2)cc1)(Oc1ccc(C(C)(C)c2ccccc2)cc1)Oc1ccc(C(C)(C)c2ccccc2)cc1)(Oc1ccc(C(C)(C)c2ccccc2)cc1)Oc1ccc(C(C)(C)c2ccccc2)cc1 (repeat unit) | 55.00
*CC(CCCC)O* (repeat unit) | -69.00
*Nc1ccc(C(C)(C)c2ccc(C(C)(C)c3ccc(Nc4ccc(C(=O)c5ccc(C(=O)c6ccc(*)cc6)cc5)cc4)cc3)cc2)cc1 (repeat unit) | 157.00
*c1ccc2c(c1)C(=O)N(c1ccc(OCCCCCCCCCCOc3ccc(N4C(=O)c5ccc(C(*)(C(F)(F)F)C(F)(F)F)cc5C4=O)cc3)cc1)C2=O (repeat unit) | 143.00
*Oc1c(C)cc(-c2cc(C)c(OC(=O)CCCCCCCCC(*)=O)c(C)c2)cc1C (repeat unit) | 57.00
*Oc1ccc(CC(NC(=O)CCc2ccc(OC(=O)CCCCC(*)=O)cc2)C(=O)OCC)cc1 (repeat unit) | 61.00
*Oc1ccc(Oc2ccc(OC(*)=O)cc2)cc1 (repeat unit) | 118.00
*O[Si](*)(C)CCCCCCOC(=O)c1cc(OC(=O)c2ccc(OCCOCCOCCOCCOCCOCCOC)cc2)ccc1OC(=O)c1ccc(OCCOCCOCCOCCOCCOCCOC)cc1 (repeat unit) | -50.00
